Drawing on ChEMBL document CHEMBL1821551, “From fragment screening to in vivo efficacy: optimization of a series of 2-aminoquinolines as potent inhibitors of beta-site amyloid precursor protein cleaving enzyme 1 (BACE1)” (J Med Chem, 2011), this text covers Papp for three molecules.

The series has as its system human MDR1 (P-gp). The experiment in a line: in vitro. Conditions: pig, LLC-PK1.
Consider `Cc1ccccc1-c1ccc2nc(N)c(CC(C)C(=O)NCc3cccnc3)cc2c1` (racemic), for which the Papp (as a rule, the rate of passage across a membrane or cell layer, normalised by area and donor concentration) was 16 ×10⁻⁶ cm/s.

In turn, `Cc1ccccc1-c1ccc2nc(N)c(C[C@@H](C)C(=O)NCc3ccccc3)cc2c1` gave a Papp of 6.5 ×10⁻⁶ cm/s.

In turn, `Cc1ccccc1-c1ccc2nc(N)c(CC(C)C(=O)NCc3cncs3)cc2c1` (racemic) displayed a Papp of 12 ×10⁻⁶ cm/s.
